Data set [1] in a line: Pharmacokinetic study in Sprague-Dawley rats. The note with it: rat, oral.
For data set [2], the system named is B16-F1 mouse melanoma cell line. The data set is described as follows: Cytotoxicity (SRB) assay, B16-F1. The format is cell-based.
The test system of data set [3] is melanoma and prostate cancer cell lines. As to the kind of experiment: Antiproliferative activity summarised over the cell line panel (range or average). It is filed as cell-based.
Data set [4] concerns A375 human melanoma cell line. The data set is described as follows: Cytotoxicity (SRB) assay, A375. It is filed as cell-based.
For data set [5], the system named is PC-3 human prostate cancer cell line. As to the kind of experiment: cells. The source says:
(§1) Cells were stained with SRB solution.

Data set [6] has as its system DU 145 human prostate cancer cell line. The data set is described as follows: Cytotoxicity (SRB) assay, DU 145. It is filed as cell-based.
Text: as §1

Data set [7] has as its system WM-164 human melanoma cell line. The data set is described as follows: Cytotoxicity (SRB) assay, WM-164. The format is cell-based.
For data set [8], the system named is LNCaP human prostate cancer cell line. The data set is described as follows: Cytotoxicity (SRB) assay, LNCaP. It is filed as cell-based.
Text: as §1

Data set [9] deals with PPC-1 human prostate cancer cell line. The data set is described as follows: Cytotoxicity (SRB) assay, PPC-1. The format is cell-based.
Text: as §1

For data set [10], the system named is MDA-MB-435/LCCMDR1 multidrug-resistant melanoma cells. The data set is described as follows: Cytotoxicity (SRB) assay, MDA-MB-435/LCCMDR1. The format is cell-based. The note with it: for IC50: Homo sapiens.
The subject of data set [11] is MDA-MB-435 parental nonresistant melanoma cells. The data set is described as follows: Cytotoxicity (SRB) assay, MDA-MB-435. The format is cell-based. Particulars: Homo sapiens.
Data set [12] concerns PC-3 xenograft. As to the kind of experiment: In vivo PC-3 prostate tumor xenograft. Particulars: PC-3, 50 mg/kg i.p. daily; control 680 mm^3.
Setting [13] is: Mus musculus, B16-F1, Table 11, read-out: IC50, B16-F1.
[14] abbreviates: Tables 11-13, read-out: IC50 (average of all seven cell lines).
Setting [15] is: Homo sapiens, A-375, Table 11, read-out: IC50, A375.
Where [16] appears, read: Homo sapiens, DU-145, Table 11, read-out: IC50, Du 145.
Setting [17] is: Homo sapiens, WM164, Table 11, read-out: IC50, WM164.
The mark [18] stands for this setting: Homo sapiens, LNCaP, Table 11, read-out: IC50, LNCaP.
Where [19] appears, read: Homo sapiens, PPC-1, Table 11, read-out: IC50, PPC-1.
[20] abbreviates: Mus musculus, B16-F1, Table 12, read-out: IC50 ± SEM, B16-F1 (converted).
[21] abbreviates: read-out: IC50 (range over tested cell lines).
Where [22] appears, read: Homo sapiens, A-375, Table 12, read-out: IC50 ± SEM, A375 (converted).
[23] abbreviates: Homo sapiens, read-out: IC50 ± SEM, PC-3, Table 12.
Setting [24] is: Homo sapiens, WM164, Table 12, read-out: IC50 ± SEM, WM164 (converted).
Where [25] appears, read: Homo sapiens, LNCaP, Table 12, read-out: IC50 ± SEM, LNCaP (converted).

Where two headings read alike, the source gives them in different places.

As to `COc1cc(C(=O)c2csc(Nc3ccc(F)cc3)n2)cc(OC)c1OC.Cl` [5Hc, (2-(p-fluorophenylamino)thiazol-4-yl)(3,4,5-trimethoxyphenyl)methanone hydrochloride salt], in [1], the “increased exposure (AUC) by the oral route compared to 1h” value is given as “more than 4.3 fold”.

Consider `O=S(=O)(c1ccccc1)n1ccnc1-c1ccccc1` [10a, 2-phenyl-1-(phenylsulfonyl)-1H-imidazole], for which the IC50 in data set [2] (setting [13]) is above 10 µM; in data set [3] (setting [14]) it was above 10 µM; in data set [4] (setting [15]), above 10 µM; in data set [5] (read-out: IC50, PC-3, Table 11) it was above 10 µM; in data set [6] (setting [16]), above 10 µM; in [7] (setting [17]), above 10 µM. The IC50 in data set [8] (setting [18]) and in data set [9] (setting [19]) was above 10 µM each time.

With `O=S(=O)(c1ccccc1)n1ccnc1-c1ccc(OCc2ccccc2)cc1` [10j, 2-(4-(benzyloxy)phenyl)-1-(phenylsulfonyl)-1H-imidazole], the IC50 in data set [2] (setting [13]) was above 10 µM; in [3] (setting [14]), above 10 µM; in [4] (setting [15]), above 10 µM; in data set [5] (read-out: IC50, PC-3, Table 11), above 10 µM; in [6] (setting [16]), above 10 µM; in data set [7] (setting [17]), above 10 µM. The IC50 in data set [8] (setting [18]) and in data set [9] (setting [19]) was above 10 µM each time.

In the case of `O=[N+]([O-])c1ccc(-c2nccn2S(=O)(=O)c2ccccc2)cc1` [10x, 2-(4-nitrophenyl)-1-(phenylsulfonyl)-1H-imidazole], the IC50 in data set [2] (setting [13]) is above 10 µM; in [3] (setting [14]), above 10 µM; in data set [4] (setting [15]) it was above 10 µM; in data set [5] (read-out: IC50, PC-3, Table 11), above 10 µM; in data set [6] (setting [16]), above 10 µM; in data set [7] (setting [17]) it was above 10 µM. For the same molecule, the IC50 in data set [8] (setting [18]) and in data set [9] (setting [19]) was above 10 µM throughout.

Turning to `O=C(c1ccc(F)cc1)c1cn(S(=O)(=O)c2ccccc2)c(-c2ccc(Cl)cc2)n1` [11fb, (2-(4-chlorophenyl)-1-(phenylsulfonyl)-1H-imidazol-4-yl)(4-fluorophenyl)methanone], in data set [10] (MDA-MB-435/LCCMDR1, read-out: IC50 MDR melanoma cell line), the IC50 was 0.035 µM. For the same molecule, the resistance index in data set [10] (MDA-MB-435/LCCMDR1 vs MDA-MB-435) is reported as 0.7.

Turning to `COc1cc(C(=O)n2ccnc2-c2ccccc2)cc(OC)c1OC` [12aaa, (2-phenyl-1H-imidazol-1-yl)(3,4,5-trimethoxyphenyl)methanone], the IC50 in data set [2] (setting [13]) was above 10 µM; in data set [3] (setting [14]), above 10 µM; in data set [4] (setting [15]), above 10 µM; in [5] (read-out: IC50, PC-3, Table 11) it was above 10 µM; in data set [6] (setting [16]) it was above 10 µM; in data set [7] (setting [17]), above 10 µM. The IC50 in data set [8] (setting [18]) and in data set [9] (setting [19]) was above 10 µM throughout.

As for `COc1ccc(C(=O)n2ccnc2-c2ccccc2)cc1` [12aba, (4-methoxyphenyl)(2-phenyl-1H-imidazol-1-yl)methanone], the IC50 in data set [2] (setting [13]) was above 10 µM; in [3] (setting [14]), above 10 µM; in [4] (setting [15]) it was above 10 µM; in data set [5] (read-out: IC50, PC-3, Table 11), above 10 µM; in [6] (setting [16]), above 10 µM; in data set [7] (setting [17]), above 10 µM. Further, the IC50 in [8] (setting [18]) and in [9] (setting [19]) was above 10 µM throughout.

With `COc1ccc(C(=O)c2c[nH]c(-c3ccccc3)n2)cc1OC` [12ae, (3,4-dimethoxyphenyl)(2-phenyl-1H-imidazol-4-yl)methanone], the IC50 was above 10 µM in data set [2] (setting [13]); above 10 µM in data set [3] (setting [14]); above 10 µM in [4] (setting [15]); above 10 µM in [5] (read-out: IC50, PC-3, Table 11); above 10 µM in data set [6] (setting [16]); above 10 µM in data set [7] (setting [17]). Also, the IC50 in [8] (setting [18]) and in data set [9] (setting [19]) was above 10 µM throughout.

On to `O=C(c1cccc(F)c1)c1c[nH]c(-c2ccccc2)n1` [12ag, (3-fluorophenyl)(2-phenyl-1H-imidazol-4-yl)methanone], for which the IC50 in data set [2] (setting [13]) was above 10 µM; in data set [3] (setting [14]), above 10 µM; in [4] (setting [15]) it was above 10 µM; in data set [5] (read-out: IC50, PC-3, Table 11), above 10 µM; in [6] (setting [16]) it was above 10 µM; in data set [7] (setting [17]), above 10 µM. Besides, the IC50 in data set [8] (setting [18]) and in data set [9] (setting [19]) was above 10 µM each time.

Consider `COc1ccc(-c2nc(C(=O)c3cc(OC)c(OC)c(OC)c3)c[nH]2)cc1` [12ca, (2-(4-methoxyphenyl)-1H-imidazol-4-yl)(3,4,5-trimethoxyphenyl)methanone], for which the IC50 was 0.108 µM in data set [2] (setting [20]); 0.0079 to 0.11 µM in [3] (setting [21]); 0.03 µM in data set [4] (setting [22]); 0.045 µM in data set [5] (setting [23]); 0.031 µM in data set [7] (setting [24]); 0.031 µM in data set [8] (setting [25]).

Regarding `COc1cc(C(=O)c2c[nH]c(-c3ccc(Cl)cc3)n2)cc(OC)c1OC` [12fa, (2-(4-chlorophenyl)-1H-imidazol-4-yl)(3,4,5-trimethoxyphenyl)methanone], the IC50 in data set [2] (setting [20]) was 0.168 µM; in data set [3] (setting [21]) it was 0.0079 to 0.11 µM; in [4] (setting [22]), 0.043 µM; in [5] (setting [23]), 0.035 µM; in data set [7] (setting [24]), 0.026 µM.

As for `COc1cc(C(=O)c2c[nH]c(-c3ccc(N(C)C)cc3)n2)cc(OC)c1OC` [12ga, (2-(4-(dimethylamino)phenyl)-1H-imidazol-4-yl)(3,4,5-trimethoxyphenyl)methanone], the IC50 is 0.361 µM in data set [2] (setting [20]); 0.0079 to 0.11 µM in [3] (setting [21]); 0.082 µM in data set [4] (setting [22]); 0.092 µM in data set [5] (setting [23]); 0.08 µM in data set [7] (setting [24]).

With `O=C(c1ccc(F)cc1)c1c[nH]c(-c2ccc(OCc3ccccc3)cc2)n1` [12jb, (2-(4-(benzyloxy)phenyl)-1H-imidazol-4-yl)(4-fluorophenyl)methanone], the IC50 was 0.117 ± 0.016 µM in data set [2] (setting [20]), 0.093 ± 0.008 µM in data set [4] (setting [22]), 0.079 ± 0.0004 µM in data set [5] (setting [23]) and 0.09 ± 0.012 µM in [7] (setting [24]). In data set [3] (12jb vs para-hydroxy compound 12kb), the “increase in activity compared with 12kb” value came to 440 fold.

Consider `O=C(c1ccc(F)cc1)c1c[nH]c(-c2ccc(O)cc2)n1` [12kb], for which the IC50 in [2] (Table 12, read-out: IC50 ± SEM, B16-F1 (converted)) is above 10 µM; in data set [4] (Table 12, read-out: IC50 ± SEM, A375 (converted)), 10 µM; in [5] (read-out: IC50 ± SEM, PC-3, Table 12) it was above 10 µM; in data set [6] (Table 12, read-out: IC50 ± SEM, Du 145), above 10 µM; in data set [7] (Table 12, read-out: IC50 ± SEM, WM164 (converted)), above 10 µM; in data set [8] (Table 12, read-out: IC50 ± SEM, LNCaP (converted)) it was 10 µM. For the same molecule, the IC50 in [9] (Table 12, read-out: IC50 ± SEM, PPC-1 (converted)) is above 10 µM.

Turning to `COc1cc(C(=O)c2c[nH]c(-c3ccc(C(C)C)cc3)n2)cc(OC)c1OC` [12v, (2-(4-isopropylphenyl)-1H-imidazol-4-yl)(3,4,5-trimethoxyphenyl)methanone], the IC50 in data set [5] (setting [23]) was 0.136 µM; in data set [6] (Homo sapiens, DU-145, Table 12, read-out: IC50 ± SEM, Du 145), 0.482 µM; in data set [8] (setting [25]), 0.171 µM; in data set [10] (Table 14D, read-out: IC50 ± SEM, MDA-MB-435/LCC-6MDR1 (converted)), 0.25 µM; in data set [11] (Table 14D, read-out: IC50 ± SEM, MDA-MB-435 (converted)), 0.312 µM; in [9] (Homo sapiens, PPC-1, Table 12, read-out: IC50 ± SEM, PPC-1 (converted)), 0.173 µM.

Consider `COc1cc(Cc2nc(-c3ccccc3)c(-c3ccccc3)[nH]2)cc(OC)c1OC` [102 e, 4,5-Diphenyl-2-(3,4,5-trimethoxybenzyl)-1H-imidazole], for which the IC50 in data set [10] (Table 14C, melanoma cells, read-out: IC50 ± SEM MDA-MB-435/LCC-6MDR1) is above 50 µM; in [11] (Table 14C, melanoma cells, read-out: IC50 ± SEM MDA-MB-435), above 50 µM.

Turning to `COc1cc(C(=O)c2csc(-c3ccccc3)n2)cc(OC)c1OCCN1C(=O)c2ccccc2C1=O` [compound 20], the IC50 is 3.1 µM in [2] (Mus musculus, B16-F1, Table 6A, read-out: IC50 ± SEM, B16-F1 (converted)); 2.3 µM in data set [4] (Homo sapiens, A-375, Table 6A, read-out: IC50 ± SEM, A375 (converted)); above 10 µM in data set [5] (Homo sapiens, read-out: IC50 ± SEM, PC-3, Table 6A); 0.642 µM in data set [6] (Homo sapiens, DU-145, Table 6A, read-out: IC50 ± SEM, DU 145); 1.3 µM in data set [7] (Homo sapiens, WM164, Table 6A, read-out: IC50 ± SEM, WM164 (converted)); 1.45 µM in data set [8] (Homo sapiens, LNCaP, Table 6A, read-out: IC50 ± SEM, LNCaP (converted)). The IC50 in data set [9] (Homo sapiens, PPC-1, Table 6A, read-out: IC50 ± SEM, PPC-1 (converted)) is 0.633 µM.

Consider `O=C(c1ccc2[nH]ccc2c1)c1csc(-c2cc3ccccc3[nH]2)n1` [compound 21, (2-(1H-indol-2-yl)thiazol-4-yl)(1H-indol-5-yl)methanone], for which, in data set [12], the “tumor volume at day 21” value is 331 mm^3.

These data come from patent publication US11465987B2, “Compounds for treatment of cancer” (ONCTERNAL THERAPEUTICS, INC., priority 2012, dated 2022).
